Activity calls are given as the source filed them. No cut-off for these calls is given here. Where a SMILES comes first, the peptide text is derived from it. Bridges are numbered along the chain shown (N, C = ends). Roman numbers before positions name the chains, in order. Side-chain parts run from the residue outwards. The star is where a group is joined. Fmoc = O=C(OCC1c2ccccc2-c2ccccc21)*
Key:
Influenza A virus [1] = test: Antiviral activity against Influenza A virus (A/Puerto Rico/8/1934(H1N1)) infected in MDCK cells assessed as reduction in viral nucleoprotein expression level at 2 ug/ml during infection measured after 24 hrs post infection by indirect immunofluorescence assay; assay type: functional, organism-based; settings: dose 2.0 µg/ml
Mus musculus [2] = test: Antiviral activity against Kunming mouse infected with Influenza A virus (A/Puerto Rico/8/1934(H1N1)) assessed as recovery in body weight at 5 mg/kg, ip administered twice a day with a time interval of 12 hrs for 4 days measured from day 8 upto 15 days (Rvb =18.02 g); assay type: functional; settings: time 15 day
RAW264.7 [3] = test: Anti-inflammatory activity against mouse RAW264.7 cells assessed as reduction in LPS induced TNF alpha level at 5 ug/ml by ELISA method; assay type: functional; settings: dose 5 µg/ml
Influenza A virus [4] = test: Antiviral activity against influenza A/Thailand/Kan353/2004 infected in MDCK cells assessed as inhibition of syncytium formation at 5 ug/ml incubated for 3 hrs by giemsa staining based assay relative to control; assay type: functional; design: scale not given: the % may be the effect or the level left; settings: dose 5 µg/ml
[5] = Cmax in Kunming mouse at 10 mg/kg, ip by HPLC analysis; assay type: ADME, organism-based; design: dose 10 mg/kg, route ip; settings: in vivo
RAW264.7 [6] = test: Anti-inflammatory activity against mouse RAW264.7 cells assessed as reduction in LPS induced TNF alpha level at 1 ug/ml by qRT-PCR analysis; assay type: functional, cell-based; settings: dose 1.0 µg/ml
Influenza A virus [7] = test: Antiviral activity against Influenza A virus (A/Puerto Rico/8/1934(H1N1)) infected in MDCK cells assessed as reduction in M1 mRNA level at 1 ug/ml measured after 24 hrs post infection by qRT-PCR analysis; assay type: functional, organism-based; settings: dose 1.0 µg/ml
Influenza A virus [8] = test: Antiviral activity against Influenza A virus (A/Puerto Rico/8/1934(H1N1)) infected in MDCK cells after treatment incubated for 1 hr by MTT assay; assay type: functional, organism-based
[9] = AUC in Kunming mouse at 10 mg/kg, ip by HPLC analysis; assay type: ADME, organism-based; design: dose 10 mg/kg, route ip; settings: in vivo
[10] = Cytotoxicity against MDCK cells incubated for 1 hr by MTT assay; assay type: toxicity, cell-based, Canis lupus familiaris; settings: dog
Influenza A virus [11] = test: Antiviral activity against Influenza A virus (A/Puerto Rico/8/1934(H1N1)) infected in MDCK cells assessed as reduction in virus induced cytopathic effect pretreated with compound incubated for 1 hrs by MTT assay; assay type: functional, organism-based
Influenza A virus [12] = test: Antiviral activity against Influenza A virus (A/Puerto Rico/8/1934(H1N1)) infected in MDCK cells assessed as reduction in HA mRNA level at 1 ug/ml measured after 24 hrs post infection by qRT-PCR analysis; assay type: functional, organism-based; settings: dose 1.0 µg/ml
Mus musculus [13] = test: Antiviral activity against Kunming mouse infected with Influenza A virus (A/Puerto Rico/8/1934(H1N1)) assessed as survival rate at 5 mg/kg, ip administered once a day for 5 days relative to control; assay type: functional; settings: 120 h, time 5 day
Influenza A virus [14] = test: Antiviral activity against Influenza A virus (A/Puerto Rico/8/1934(H1N1)) infected in MDCK cells assessed as reduction in virus induced cytopathic effect after infection incubated for 1 hr by MTT assay; assay type: functional, organism-based
[15] = Selectivity index, ratio of CC50 for MDCK cells to IC50 antiviral activity against Influenza A virus (A/Puerto Rico/8/1934(H1N1)) infected in MDCK cells assessed as reduction in virus induced cytopathic effect pre-treated with virus; assay type: toxicity, cell-based; settings: dog, read-out: Selectivity Index
Mus musculus [16] = test: Antiviral activity against Kunming mouse infected with Influenza A virus (A/Puerto Rico/8/1934(H1N1)) assessed as recovery in body weight at 1.25 mg/kg, ip administered twice a day with a time interval of 12 hrs for 4 days measured from day 8 upto 15 days (reference value: 17.58 g); assay type: functional; settings: time 15 day
Influenza A virus [17] = test: Antiviral activity against Influenza A virus (A/Puerto Rico/8/1934(H1N1)) infected in MDCK cells assessed as reduction in virus induced cytopathic effect pre-treated with virus followed by cell infection for 1 hr by MTT assay; assay type: functional, organism-based
Influenza A virus [18] = test: Antiviral activity against Influenza A virus A/Aichi/2/68(H3N2) infected in MDCK cells incubated for 1 hr by MTT assay; assay type: functional, organism-based
RAW264.7 [19] = test: Anti-inflammatory activity against mouse RAW264.7 cells assessed as reduction in influenza A virus induced IL-6 level at 1 ug/ml by qRT- PCR; assay type: functional, cell-based; settings: dose 1.0 µg/ml
[20] = Half life in Kunming mouse at 10 mg/kg, ip by HPLC analysis; assay type: ADME, organism-based; settings: in vivo
RAW264.7 [21] = test: Anti-inflammatory activity against mouse RAW264.7 cells assessed as reduction in LPS induced TNF alpha level at 1 ug/ml by ELISA method; assay type: functional; settings: dose 1 µg/ml
[22] = Tmax in Kunming mouse at 10 mg/kg, ip by HPLC analysis; assay type: ADME, organism-based; settings: in vivo
Influenza A virus [23] = test: Antiviral activity against Influenza A virus A/FM/1/47 infected in MDCK cells incubated for 1 hr by MTT assay; assay type: functional, organism-based; settings: A/FM/1/47, MDCK
Mus musculus [24] = test: Antiviral activity against Kunming mouse infected with Influenza A virus (A/Puerto Rico/8/1934(H1N1)) assessed as reduction in viral titer in lung homogenate at 5 mg/kg, ip administered twice a day for 3 days after 24 hrs of viral infection; assay type: functional, organism-based; settings: time 3.0 day
RAW264.7 [25] = test: Anti-inflammatory activity against mouse RAW264.7 cells assessed as reduction in LPS induced IL-6 level at 1 ug/ml by qRT-PCR analysis; assay type: functional, cell-based; settings: dose 1.0 µg/ml
RAW264.7 [26] = test: Anti-inflammatory activity against mouse RAW264.7 cells assessed as reduction in LPS induced IL-1 beta level at 1 ug/ml by qRT-PCR analysis; assay type: functional, cell-based; settings: dose 1.0 µg/ml
Influenza A virus [27] = test: Antiviral activity against Influenza A virus 699(H3) clinical isolate infected in MDCK cells incubated for 1 hr by MTT assay; assay type: functional, organism-based
Mus musculus [28] = test: Antiviral activity against Kunming mouse infected with Influenza A virus (A/Puerto Rico/8/1934(H1N1)) assessed as survival rate at 5 mg/kg, ip administered twice a day with a time interval of 12 hrs for 4 days relative to control; assay type: functional; settings: 96 h, time 4 day
Mus musculus [29] = test: Antiviral activity against Kunming mouse infected with Influenza A virus (A/Puerto Rico/8/1934(H1N1)) assessed as survival rate at 1.25 mg/kg, ip administered twice a day with a time interval of 12 hrs for 4 days relative to control; assay type: functional; settings: 96 h, time 4 day
RAW264.7 [30] = test: Anti-inflammatory activity against mouse RAW264.7 cells assessed as reduction in Influenza A virus (A/Puerto Rico/8/1934(H1N1)) induced TNF alpha level at 5 ug/ml by ELISA method; assay type: functional; settings: dose 5 µg/ml
[31] = Cytotoxicity against MDCK cells by CCK-8 assay; assay type: toxicity, cell-based, Canis lupus familiaris; settings: dog
Mus musculus [32] = test: Antiviral activity against Kunming mouse infected with Influenza A virus (A/Puerto Rico/8/1934(H1N1)) assessed as increase in body weight at 5 mg/kg, ip measured after 15 days (reference value: 178.7%); assay type: functional; settings: time 15 day
RAW264.7 [33] = test: Anti-inflammatory activity against mouse RAW264.7 cells assessed as reduction in influenza A virus induced TNF alpha level at 1 ug/ml by qRT- PCR; assay type: functional, cell-based; settings: dose 1.0 µg/ml
Mus musculus [34] = test: Antiviral activity against Kunming mouse infected with Influenza A virus (A/Puerto Rico/8/1934(H1N1)) assessed as reduction in viral titer in lung homogenate at 1.25 mg/kg, ip administered twice a day for 3 days after 24 hrs of viral infection; assay type: functional, organism-based; settings: time 3.0 day

## NCCCC[C@H](NC(=O)OCC1c2ccccc2-c2ccccc21)C(=O)N[C@@H](CCCCN)C(=O)N[C@@H](Cc1c[nH]c2ccccc12)C(=O)N[C@@H](CCCCN)C(=O)NCCCC[C@H](NC(=O)[C@H](CCCCN)NC(=O)[C@H](Cc1c[nH]c2ccccc12)NC(=O)[C@H](CCCCN)NC(=O)[C@H](CCCCN)NC(=O)OCC1c2ccccc2-c2ccccc21)C(=O)NCCCC[C@H](NC(=O)[C@H](CCCCNC(=O)[C@H](CCCCN)NC(=O)[C@H](Cc1c[nH]c2ccccc12)NC(=O)[C@H](CCCCN)NC(=O)[C@H](CCCCN)NC(=O)OCC1c2ccccc2-c2ccccc21)NC(=O)[C@H](CCCCN)NC(=O)[C@H](Cc1c[nH]c2ccccc12)NC(=O)[C@H](CCCCN)NC(=O)[C@H](CCCCN)NC(=O)OCC1c2ccccc2-c2ccccc21)C(=O)NCC(=O)O (I: Fmoc-KKWKK([Lys-Trp-Lys-Lys-Fmoc])KG-OH / II: Fmoc-KKWKK([Lys-Trp-Lys-Lys-Fmoc]); amide I:6-II:C)
Influenza A virus [1]
  Activity: Active
Mus musculus [2]
  Activity: 26.99 g
RAW264.7 [3]
  Activity: 280.5 pg/mL
Influenza A virus [4]
  Activity: 90%
[5]
  Cmax: 5020 ng/mL
RAW264.7 [6]
  Activity: Active
Influenza A virus [7]
  Activity: Active
Influenza A virus [8]
  IC50: 320 nM
[9]
  AUC: 11900 ng·h/mL
[10]
  CC50 at 1 h: 41900 nM
Influenza A virus [11]
  IC50: 240 nM
Influenza A virus [12]
  Activity: Active
Mus musculus [13]
  survival at 5 mg/kg: 20%
Influenza A virus [14]
  IC50: 11600 nM
[15]
  selectivity ratio: 150
Mus musculus [16]
  Activity: 25.84 g
Influenza A virus [17]
  IC50: 280 nM
Influenza A virus [18]
  IC50: 240 nM
RAW264.7 [19]
  Activity: Active
[20]
  half-life: 2.88 h
RAW264.7 [21]
  Activity: 250.5 pg/mL
[22]
  Tmax: 1.03 h
Influenza A virus [23]
  IC50: 170 nM
Mus musculus [24]
  Activity: Active
RAW264.7 [25]
  Activity: Active
RAW264.7 [26]
  Activity: Active
Influenza A virus [27]
  IC50: 120 nM
Mus musculus [28]
  survival at 5 mg/kg: 33%
Mus musculus [29]
  survival at 1.25 mg/kg: 20%
RAW264.7 [30]
  Activity: 328.4 pg/mL
[31]
  CC50: 37800 nM
Mus musculus [32]
  Activity: 129.4%
RAW264.7 [33]
  Activity: Active
Mus musculus [34]
  Activity: Active

— ChEMBL document CHEMBL5131467, “Multivalent peptide dendrimers inhibit the fusion of viral-cellular membranes and the cellular NF-κB signaling pathway” (Eur J Med Chem, 2022)
